The record followed here is patent publication US20220305090A1, “HAIR GROWING AGENT AND FOOD OR BEVERAGE PRODUCT COMPRISING SAME” (NITTA GELATIN INC., priority 2019, published 2022).

In assay [1] the test system is human normal hair papilla cells HFDPC-C. Kind of assay: Cell growth test on hair papilla cells (neutral red method, living cell number vs purified water control). Format: cell-based. The following applies: for Hair papilla cell growth promoting action (in words): conclusion from Tables 1, 2 and 4; for Growth rate control = 100: 72 hours culture; for Assessment: Table 1. The protocol: First, human normal hair papilla cells HFDPC-C (manufactured by Takara Bio Inc.) were obtained, and the hair papilla cells were then seeded at 0.2×10^4/dish in each well of a 96-well plate for cell culture (manufactured by Corning Inc.). Further, 200 μL of a basal medium (trade name: “Follicle Dermal Papilla Cell Basal Medium”, manufactured by Takara Bio Inc.) containing a growth factor accompanying the obtained hair papilla cells was supplied to each well, and the hair papilla cells were precultured in each well at 37° C. for 24 hours.
Next, the hair papilla cells were confirmed to be subconfluent, and the basal medium in each well was then replaced by 200 μL of another basal medium (trade name: “Follicle Dermal Papilla Cell Basal Medium”, manufactured by Takara Bio Inc.) free of the growth factor described above. In this way, hair papilla cells to be used for determining whether or not addition of the above-described samples promote cell growth were prepared.
To the hair papilla cells prepared as described above, amino acids, combinations of amino acids, peptides and collagen peptide mixtures which are the samples described above were added at final concentrations shown in Tables 1 and 2, and the hair papilla cells were cultured in each well at 37° C. for 72 hours. Here, to one of the wells containing the hair papilla cells prepared as described above, 20 μL, of purified water was added, and as with other hair papilla cells, culturing was performed at 37° C. for 72 hours to prepare a control test sample (control). Thereafter, for each of the hair papilla cells in the wells containing purified water or the samples, the number of living cells (living cell number) was counted by a neutral red method. Here, the “neutral red method” is a method in which neutral red is added at a final concentration of 150 μg/mL into a well where cells are cultured, the cells are cultured for 20 minutes, and washed with PBS (phosphate buffer physiological saline), 200 μL of a 50 mass % ethanol solution containing 1 mass % acetic acid is added into the well as an extraction liquid, the mixture is stirred, and the absorbance of the well containing the neutral red is measured at a wavelength of 540 nm to measure the number of living cells in the well.
The number of living cells of hair papilla cells in the well containing the sample with respect to the number of living cells of hair pallia cells in the well containing purified water (control test sample) was determined as a cell growth rate (%) to evaluate the hair papilla cell growth promoting action in the sample. Further, the cell growth rate (%) was subjected to statistical processing to evaluate significance of the hair papilla cell growth promoting action in the sample. […] Thereafter, the Student's t-test (t-test) was conducted to evaluate significance. […] In Tables 1 and 2, samples with “++” were determined to have a significance in the hair papilla cell growth promoting action. In samples with “+”, the cell growth rate (%) exceeded 100.

The subject of another assay is hairless mice. Kind of assay: Test for confirming hair development effect and hair growth effect using hairless mouse (visual amount of head hair). Format: in vivo.

Source text for hairless mice: Thirty 8-week-old male and female hairless mice were provided by purchase from Hoshino Laboratory Animals, Inc. The hairless mice were divided into five groups each consisting of six mice with no regard to sex. Specifically, the plurality of groups consist of a normal group given a normal feed (trade name: “Labo MR Stock”, manufactured by Nosan Corporation), a control group given magnesium-deficient specialty feed (trade name: “HR-AD Feed”, manufactured by Nosan Corporation), a first group given a mixed feed obtained by adding Pro-Hyp at a content of 0.3 mass % to the magnesium-deficient specialty feed, a second group given a mixed feed obtained by adding the collagen peptide mixture A at a content of 5 mass % to the magnesium-deficient specialty feed, and a third group given a mixed feed obtained by adding a collagen peptide mixture C of the later-described composition at a content of 2.5 mass % to the magnesium-deficient specialty feed.
The heads of the hairless mice in the above-described groups were observed immediately after they were reared for 3 weeks to 11 weeks of age under the following conditions: the temperature was 23±2° C., the relative humidity was 55±10%, the lighting cycle was 12 hours, the light period started at 7:00 and ended at 19:00, and the mice were allowed to freely eat. […] At the time of obtaining the hairless mice, their heads had no hair.
Further, a 2-week-old hairless mouse before starting to lose its hair was obtained from Hoshino Laboratory Animals, Inc., and relative to the amount of head hair of the hairless mouse which is defined as 10, the amount of head hair of each of the 11-week-old hairless mice in each group was visually measured. […] Each of the values in the table represents an average of the amounts of head hair of the six hairless mice in each group.

For the substance glutamic acid-hydroxyproline [EO], in assay [1], the “Hair papilla cell growth promoting action (in words)” value is listed as “had a hair papilla cell growth promoting action”. Moreover, in assay [1] (final concentration 0.05 mM), the “Growth rate control = 100” value came to 102 ± 6% and the Assessment result is “+ (In samples with “+”, the cell growth rate (%) exceeded 100)”. For the same substance, in assay [1] (final concentration 0.5 mM), the “Growth rate control = 100” value is 109 ± 4% and the Assessment result is reported as “+ (In samples with “+”, the cell growth rate (%) exceeded 100)”.

With “glutamic acid-hydroxyproline-glycine [EOG]”, the “Hair papilla cell growth promoting action (in words)” value in assay [1] is on record as “had a hair papilla cell growth promoting action”. Moreover, the “Growth rate control = 100” value in assay [1] (final concentration 0.05 mM) is on record as 126 ± 10%; in assay [1] (final concentration 0.5 mM) it was 131 ± 1%; in assay [1] (final concentration 5 mM) it was 121 ± 8%. Moreover, the Assessment entry in assay [1] (final concentration 0.05 mM), in assay [1] (final concentration 0.5 mM) and in assay [1] (final concentration 5 mM) was “++” each time.

For glycine-proline-hydroxyproline [GPO], in assay [1], the “Hair papilla cell growth promoting action (in words)” value is “had a hair papilla cell growth promoting action”. Also, the results for the “Growth rate control = 100” value in assay [1] (final concentration 0.05 mM), in assay [1] (final concentration 0.5 mM) and in assay [1] (final concentration 5 mM) were 126 ± 3%, 125 ± 4% and 120 ± 4%, respectively. The Assessment result in assay [1] (final concentration 0.05 mM), in assay [1] (final concentration 0.5 mM) and in assay [1] (final concentration 5 mM) was “++” in each case.

For the substance leucine-hydroxyproline [LO], the “Hair papilla cell growth promoting action (in words)” value in assay [1] was “had a hair papilla cell growth promoting action”. Moreover, the “Growth rate control = 100” value in assay [1] (final concentration 0.05 mM) is 104 ± 6%; in assay [1] (final concentration 0.5 mM), 105 ± 2%; in assay [1] (final concentration 5 mM) it was 104 ± 5%. The Assessment result in assay [1] (final concentration 0.05 mM) is listed as “+ (In samples with “+”, the cell growth rate (%) exceeded 100)”; in assay [1] (final concentration 0.5 mM), “+ (In samples with “+”, the cell growth rate (%) exceeded 100)”; in assay [1] (final concentration 5 mM), “+ (In samples with “+”, the cell growth rate (%) exceeded 100)”.

phenylalanine-hydroxyproline [FO]: the “Hair papilla cell growth promoting action (in words)” value in assay [1] is “had a hair papilla cell growth promoting action”. Also, the “Growth rate control = 100” value in assay [1] (final concentration 0.05 mM) turned out to be 104 ± 4%; in assay [1] (final concentration 0.5 mM), 106 ± 2%; in assay [1] (final concentration 5 mM) it was 104 ± 1%. The Assessment result in assay [1] (final concentration 0.05 mM) is on record as “+ (In samples with “+”, the cell growth rate (%) exceeded 100)”; in assay [1] (final concentration 0.5 mM) it was “+ (In samples with “+”, the cell growth rate (%) exceeded 100)”; in assay [1] (final concentration 5 mM), “++”.

For proline-alanine [PA], the “Hair papilla cell growth promoting action (in words)” value in assay [1] was “had a hair papilla cell growth promoting action”. Besides, the “Growth rate control = 100” value in assay [1] (final concentration 0.05 mM) is 105 ± 2%; in assay [1] (final concentration 0.5 mM), 111 ± 1%; in assay [1] (final concentration 5 mM), 107 ± 5%. Besides, the Assessment result is reported as “+ (In samples with “+”, the cell growth rate (%) exceeded 100)” in assay [1] (final concentration 0.05 mM); “+ (In samples with “+”, the cell growth rate (%) exceeded 100)” in assay [1] (final concentration 0.5 mM); “+ (In samples with “+”, the cell growth rate (%) exceeded 100)” in assay [1] (final concentration 5 mM).

With proline-alanine-glycine [PAG], the “Hair papilla cell growth promoting action (in words)” value in assay [1] is “had a hair papilla cell growth promoting action”. The “Growth rate control = 100” value in assay [1] (final concentration 0.05 mM) was 110 ± 4%; in assay [1] (final concentration 0.5 mM), 113 ± 1%; in assay [1] (final concentration 5 mM), 115 ± 4%. Further, the Assessment entry in assay [1] (final concentration 0.05 mM) is listed as “+ (In samples with “+”, the cell growth rate (%) exceeded 100)”; in assay [1] (final concentration 0.5 mM) it was “++”; in assay [1] (final concentration 5 mM), “++”.

On to proline-hydroxyproline [PO], for which the “Score (amount of head hair, 2-week-old hairless mouse = 10)” value in the assay with hairless mice (First group: 0.3 mass % in magnesium-deficient specialty feed, 3 weeks, 11-week-old hairless mice, average of six) is given as 8. In the assay with hairless mice (conclusion from Table 3), the “Effectiveness as hair growing agent (in words)” value is reported as “effective as hair growing agents”. For the same substance, in the assay with hairless mice (mixed feed with 0.3 mass % Pro-Hyp, 11-week-old hairless mice, compared with control group), the “Hair development in the hair of head (FIG. 2 vs FIG. 1)” value is listed as “hair development occurred in the hair of head”. Further, the “Hair papilla cell growth promoting action (in words)” value in assay [1] is “had a hair papilla cell growth promoting action”. In addition, the “Growth rate control = 100” value in assay [1] (final concentration 0.05 mM) was determined as 126 ± 8%; in assay [1] (final concentration 0.5 mM) it was 127 ± 3%; in assay [1] (final concentration 5 mM), 129 ± 6%. Also, the Assessment result in assay [1] (final concentration 0.05 mM), in assay [1] (final concentration 0.5 mM) and in assay [1] (final concentration 5 mM) was “++” throughout.

As to proline-proline [PP], the “Hair papilla cell growth promoting action (in words)” value in assay [1] was “had a hair papilla cell growth promoting action”. For the same substance, the “Growth rate control = 100” value came out at 116 ± 3% in assay [1] (final concentration 0.05 mM), 113 ± 6% in assay [1] (final concentration 0.5 mM) and 109 ± 2% in assay [1] (final concentration 5 mM). For the same substance, the Assessment result in assay [1] (final concentration 0.05 mM), in assay [1] (final concentration 0.5 mM) and in assay [1] (final concentration 5 mM) was “++” throughout.

As for serine-hydroxyproline-glycine [SOG], in assay [1], the “Hair papilla cell growth promoting action (in words)” value was “had a hair papilla cell growth promoting action”. The results for the “Growth rate control = 100” value in assay [1] (final concentration 0.05 mM), in assay [1] (final concentration 0.5 mM) and in assay [1] (final concentration 5 mM) were 113 ± 10%, 116 ± 3% and 109 ± 2%, respectively. Further, the Assessment entry in assay [1] (final concentration 0.05 mM) is reported as “+ (In samples with “+”, the cell growth rate (%) exceeded 100)”; in assay [1] (final concentration 0.5 mM) it was “++”; in assay [1] (final concentration 5 mM) it was “+ (In samples with “+”, the cell growth rate (%) exceeded 100)”.
